Data set [1] relates to Schoenoplectiella juncoides. Nature of the data set: Pre-emergence herbicide activity against Schoenoplectiella juncoides under greenhouse condition at 1 g a.i/a measured after 3 weeks. The format is functional.
In data set [2] the test system is Schoenoplectiella juncoides. The experiment in a line: Pre-emergence herbicide activity against Schoenoplectiella juncoides under greenhouse condition at 10 g a.i/a measured after 3 weeks. It is filed as functional.
In data set [3] the test system is Echinochloa oryzicola. The experiment in a line: Pre-emergence herbicide activity against Echinochloa oryzicola under greenhouse condition at 1 g a.i/a measured after 3 weeks. The format is functional.
The test system of data set [4] is Echinochloa oryzicola. Nature of the data set: Post-emergence herbicide activity against Echinochloa oryzicola under greenhouse condition at 1 g a.i/a treated at one-leaf stage measured after 3 weeks. The format is functional.
Data set [5] relates to Echinochloa oryzicola. The experiment in a line: Post-emergence herbicide activity against Echinochloa oryzicola under greenhouse condition at 10 g a.i/a treated at one-leaf stage measured after 3 weeks. The format is functional.
Data set [6] relates to Echinochloa oryzicola. The experiment in a line: Pre-emergence herbicide activity against Echinochloa oryzicola under greenhouse condition at 10 g a.i/a measured after 3 weeks. The format is functional.
Data set [7] concerns Schoenoplectiella juncoides. The experiment in a line: Post-emergence herbicide activity against Schoenoplectiella juncoides under greenhouse condition at 1 g a.i/a treated at one-leaf stage measured after 3 weeks. It is filed as functional.
In data set [8] the test system is Schoenoplectiella juncoides. Nature of the data set: Post-emergence herbicide activity against Schoenoplectiella juncoides under greenhouse condition at 10 g a.i/a treated at one-leaf stage measured after 3 weeks. The format is functional.
The test system of data set [9] is Oryza sativa. The experiment in a line: Phytotoxicity against two-leaf stage Oryza sativa cv. Nipponbare (rice) planted zero cm depth at 5.0 g a.i/a measured after 3 weeks. It is filed as organism-based. To be noted: in vivo, 504 h.
For data set [10], the system named is Oryza sativa. Nature of the data set: Phytotoxicity against two-leaf stage Oryza sativa cv. Nipponbare (rice) planted 2 cm depth at 2.5 g a.i/a measured after 3 weeks. The format is organism-based. To be noted: in vivo, 504 h.
The subject of data set [11] is Oryza sativa. The experiment in a line: Phytotoxicity against two-leaf stage Oryza sativa cv. Nipponbare (rice) planted 2 cm depth at 5.0 g a.i/a measured after 3 weeks. It is filed as organism-based. To be noted: in vivo, 504 h.
Data set [12] has as its system Echinochloa oryzicola. The experiment in a line: Herbicidal activity against Echinochloa oryzicola at 1 g a.i/a treated at 2.5 leaf stage measured after 3 weeks. It is filed as functional.
In data set [13] the test system is Echinochloa oryzicola. Nature of the data set: Herbicidal activity against Echinochloa oryzicola at 2.5 g a.i/a treated at 2.5 leaf stage measured after 3 weeks. The format is functional.
Data set [14] has as its system Echinochloa oryzicola. Nature of the data set: Herbicidal activity against Echinochloa oryzicola at 5.0 g a.i/a treated at 2.5 leaf stage measured after 3 weeks. It is filed as functional.
Data set [15] has as its system Echinochloa oryzicola. The experiment in a line: Herbicidal activity against Echinochloa oryzicola at 1 g a.i/a treated at 1.5 leaf stage measured after 3 weeks. It is filed as functional.
Data set [16] relates to Echinochloa oryzicola. The experiment in a line: Herbicidal activity against Echinochloa oryzicola at 2.5 g a.i/a treated at 1.5 leaf stage measured after 3 weeks. The format is functional.
For data set [17], the system named is Echinochloa oryzicola. Nature of the data set: Herbicidal activity against Echinochloa oryzicola at 5.0 g a.i/a treated at 1.5 leaf stage measured after 3 weeks. It is filed as functional.
In data set [18] the test system is Oryza sativa. The experiment in a line: Phytotoxicity against two-leaf stage Oryza sativa cv. Nipponbare (rice) planted zero cm depth at 2.5 g a.i/a measured after 3 weeks. It is filed as organism-based. The conditions noted are these: in vivo, other, 504 h.
In data set [19] the test system is Oryza sativa. The experiment in a line: Phytotoxicity against two-leaf stage Oryza sativa cv. Nipponbare (rice) planted 2 cm depth at 1 g a.i/a measured after 3 weeks. It is filed as organism-based. The conditions noted are these: in vivo, other, 504 h.
Data set [20] relates to Oryza sativa. The experiment in a line: Phytotoxicity against two-leaf stage Oryza sativa cv. Nipponbare (rice) planted zero cm depth at 1 g a.i/a measured after 3 weeks. The format is organism-based. To be noted: in vivo, other, 504 h.

The structures appear in SMILES notation.

On to `CC1=C(c2ccccc2)C(=O)N(C(C)(C)c2cc(Cl)cc(Cl)c2)C1`, for which the Activity in data set [1] came to 100%; in [2], 100%; in the data set on Echinochloa oryzicola [3] it was 100%; in the data set with Echinochloa oryzicola [4], 87.6%; in the data set with Echinochloa oryzicola [5] it was 100%; with Echinochloa oryzicola [6], 100%. For the same compound, the Activity in data set [7] is listed as 75.1%; in [8] it was 87.6%; with Oryza sativa [9], 98%; in the data set with Oryza sativa [10], 0%; in the data set with Oryza sativa [11], 0%; with Echinochloa oryzicola [12], 40%. Also, the Activity stood at 95% in the data set on Echinochloa oryzicola [13]; 98% in the data set with Echinochloa oryzicola [14]; 60% in the data set with Echinochloa oryzicola [15]; 95% with Echinochloa oryzicola [16]; 98% in the data set with Echinochloa oryzicola [17]; 90% in the data set with Oryza sativa [18].

With `C=C1CN(C(C)(C)c2cc(Cl)cc(Cl)c2)C(=O)C1(C(=O)OC)c1ccccc1F` (centres undefined), the Activity is listed as 98% in the data set with Oryza sativa [9]; 0% in the data set with Oryza sativa [10]; 0% in the data set on Oryza sativa [11]; 65% with Echinochloa oryzicola [12]; 95% in the data set on Echinochloa oryzicola [13]; 95% in the data set on Echinochloa oryzicola [14]. For the same compound, the Activity was determined as 99% in the data set on Echinochloa oryzicola [15], 99% in the data set on Echinochloa oryzicola [16], 99% with Echinochloa oryzicola [17] and 80% in the data set with Oryza sativa [18].

As for `CC1=CN(C(C)(C)c2cc(Cl)cc(Cl)c2)C(=O)C1(C(=O)OCc1ccccc1)c1ccccc1` (centres undefined), the Activity was 0% in data set [1]; 0% in data set [2]; 0% with Echinochloa oryzicola [3]; 50.1% in the data set with Echinochloa oryzicola [4]; 100% with Echinochloa oryzicola [5]; 100% with Echinochloa oryzicola [6]. Also, the Activity in [7] and in [8] was 0% each time.

For the compound `COC(=O)C1(c2ccccc2)C(=O)N(C(C)(C)c2cccc(Cl)c2)C=C1C` (centres undefined), the Activity in data set [1] turned out to be 50.1%; in data set [2], 100%; in the data set with Echinochloa oryzicola [3] it was 100%; in the data set with Echinochloa oryzicola [4] it was 50.1%; with Echinochloa oryzicola [5], 100%; in the data set with Echinochloa oryzicola [6] it was 100%. In addition, the Activity in [7] was found to be 87.6%; in data set [8], 87.6%; with Oryza sativa [9], 98%; in the data set on Oryza sativa [19], 0%; with Oryza sativa [10] it was 0%; with Oryza sativa [11], 0%. For the same compound, the Activity in the data set with Echinochloa oryzicola [12] stood at 40%; in the data set on Echinochloa oryzicola [13] it was 90%; with Echinochloa oryzicola [14] it was 99%; in the data set with Echinochloa oryzicola [15], 99%; with Echinochloa oryzicola [16], 100%; in the data set on Echinochloa oryzicola [17], 100%. Moreover, the Activity is reported as 95% with Oryza sativa [18] and 80% in the data set with Oryza sativa [20].

On to `COC(=O)C1(c2ccccc2)C(=O)N(C(C)(C)c2cc(Cl)cc(Cl)c2)C=C1C=O` (centres undefined), for which the Activity in data set [1] is 50.1%; in data set [2], 100%; with Echinochloa oryzicola [3], 100%; in the data set on Echinochloa oryzicola [4], 0%; with Echinochloa oryzicola [5], 87.6%; with Echinochloa oryzicola [6], 100%. The Activity was found to be 50.1% in [7] and 87.6% in data set [8].

As to `COC(=O)C1(c2ccccc2)C(=O)N(C(C)(C)c2cc(Cl)cc(Cl)c2)C=C1C(F)F` (centres undefined), the Activity stood at 0% in data set [1]; 87.6% in [2]; 0% in the data set with Echinochloa oryzicola [3]; 0% with Echinochloa oryzicola [4]; 87.6% with Echinochloa oryzicola [5]; 100% with Echinochloa oryzicola [6]. In addition, the figures for the Activity in data set [7] and in data set [8] were 0% and 50.1%, respectively.

`C=C1CN(C(C)(C)c2cc(Cl)cc(Cl)c2)C(=O)C1(C(=O)OC)c1ccccc1` (centres undefined): the Activity is 99% in the data set with Oryza sativa [9]; 0% in the data set with Oryza sativa [19]; 0% with Oryza sativa [10]; 0% in the data set on Oryza sativa [11]; 40% in the data set with Echinochloa oryzicola [12]; 99% in the data set on Echinochloa oryzicola [13]. For the same compound, the Activity with Echinochloa oryzicola [14] is 99%; in the data set on Echinochloa oryzicola [15] it was 99%; in the data set with Echinochloa oryzicola [16] it was 99%; with Echinochloa oryzicola [17] it was 100%; in the data set with Oryza sativa [18] it was 95%; in the data set with Oryza sativa [20] it was 70%.

Regarding `COC(=O)C1(c2ccccc2)C(=O)N(C(C)(C)c2cc(Cl)cc(Cl)c2)C=C1C#N` (centres undefined), the Activity in data set [1] came to 0%; in data set [2], 87.6%; in the data set on Echinochloa oryzicola [3], 0%; in the data set with Echinochloa oryzicola [4], 0%; with Echinochloa oryzicola [5], 0%; in the data set on Echinochloa oryzicola [6] it was 100%. In addition, the results for the Activity in data set [7] and in [8] were 0% and 0.1%, respectively.

For `COC(=O)C1(c2ccccc2)C(=O)N(C(C)(C)c2cnc3ccccc3c2)C=C1C` (centres undefined), the Activity in [1] was found to be 50.1%; in data set [2] it was 100%; in the data set with Echinochloa oryzicola [3], 100%; with Echinochloa oryzicola [4] it was 0%; in the data set with Echinochloa oryzicola [5] it was 100%; with Echinochloa oryzicola [6], 100%. Moreover, the Activity in data set [7] is 0%; in [8] it was 87.6%.

In the case of `COC(=O)C1(c2ccccc2)C(=O)N(C(C)(C)c2cc(Cl)cc(Cl)c2)C=C1COC(C)=O` (centres undefined), the Activity in [1] was found to be 0%; in data set [2] it was 100%; with Echinochloa oryzicola [3] it was 75.1%; in the data set with Echinochloa oryzicola [4] it was 0.1%; in the data set on Echinochloa oryzicola [5] it was 100%; with Echinochloa oryzicola [6], 100%. In addition, the Activity is on record as 0.1% in [7] and 87.6% in data set [8].

Take `CCOC(=O)C1(c2ccccc2)C(=O)N(C(C)(C)c2cc(Cl)cc(Cl)c2)C=C1C` (centres undefined): the Activity in data set [1] was determined as 75.1%; in data set [2] it was 100%; in the data set on Echinochloa oryzicola [3], 100%; with Echinochloa oryzicola [4] it was 87.6%; in the data set on Echinochloa oryzicola [5] it was 100%; with Echinochloa oryzicola [6] it was 100%. Moreover, the Activity in [7] stood at 0%; in [8], 75.1%.

On to `COCC1=CN(C(C)(C)c2cc(Cl)cc(Cl)c2)C(=O)C1(C(=O)OC)c1ccccc1` (centres undefined), for which the Activity in data set [1] stood at 50.1%; in data set [2], 100%; in the data set with Echinochloa oryzicola [3], 100%; in the data set on Echinochloa oryzicola [4], 75.1%; in the data set on Echinochloa oryzicola [5], 100%; with Echinochloa oryzicola [6], 100%. Moreover, the Activity amounted to 87.6% in [7]; 87.6% in data set [8]; 98% with Oryza sativa [9]; 0% in the data set on Oryza sativa [10]; 0% in the data set with Oryza sativa [11]; 65% in the data set with Echinochloa oryzicola [13]. The Activity in the data set on Echinochloa oryzicola [14] is on record as 98%; in the data set with Echinochloa oryzicola [16], 99%; in the data set with Echinochloa oryzicola [17], 100%; in the data set with Oryza sativa [18], 30%.

Consider `COC(=O)C1(c2ccccc2)C(=O)N(C(C)(C)c2ccc3ccccc3c2)C=C1C` (centres undefined), for which the Activity in data set [1] worked out at 0%; in data set [2] it was 87.6%; in the data set on Echinochloa oryzicola [3], 87.6%; with Echinochloa oryzicola [4] it was 0.1%; in the data set on Echinochloa oryzicola [5], 100%; with Echinochloa oryzicola [6], 100%. The Activity stood at 0% in [7] and 87.6% in data set [8].

With `COC(=O)C1(c2ccccc2)C(=O)N(C(C)(C)c2cccc(Cl)n2)C=C1C` (centres undefined), the Activity in data set [1] was 100%; in data set [2] it was 100%; in the data set on Echinochloa oryzicola [3], 100%; in the data set on Echinochloa oryzicola [4] it was 0%; in the data set with Echinochloa oryzicola [5] it was 87.6%; in the data set with Echinochloa oryzicola [6], 100%. Moreover, the Activity in data set [7] and in data set [8] was 87.6% in each case.

Take `COC(=O)C1(c2ccccc2)C(=O)N(C(C)(C)c2cc(F)cc(F)c2)C=C1C` (centres undefined): the Activity in data set [1] is listed as 100%; in data set [2], 100%; in the data set on Echinochloa oryzicola [3], 75.1%; in the data set on Echinochloa oryzicola [4], 50.1%; in the data set on Echinochloa oryzicola [5], 100%; in the data set on Echinochloa oryzicola [6], 100%. For the same compound, the Activity in data set [7] and in data set [8] was 87.6% throughout.

Turning to `COC(=O)C1(c2ccccc2)C(=O)N(C(C)(C)c2cc(Cl)cc(Cl)c2)C=C1/C=N/O` (centres undefined), the Activity in [1] amounted to 0%; in data set [2], 75.1%; in the data set with Echinochloa oryzicola [3] it was 0%; in the data set on Echinochloa oryzicola [4] it was 0%; with Echinochloa oryzicola [5] it was 0.1%; in the data set on Echinochloa oryzicola [6], 100%. For the same compound, the Activity in data set [7] is 0%; in data set [8], 0.1%.

Values taken from ChEMBL document CHEMBL3044903, “Synthesis and Herbicidal Activity of Novel 3-Alkoxycarbonyl-3-aryl-2,3-dihydro-2-oxo-1H-pyrrole Derivatives” (J Pestic Sci, 2004).
